Like-named read-outs stand apart in the source and are kept apart here.
Legend:
centrin1 = target: T1, centrin1 (Homo sapiens, UniProt Q12798); assay: Fluorescence anisotropy competition: displacement of F-Sfi1 from centrin1 by CaM inhibitors; type: binding
T1 sequence (Q12798 1-172): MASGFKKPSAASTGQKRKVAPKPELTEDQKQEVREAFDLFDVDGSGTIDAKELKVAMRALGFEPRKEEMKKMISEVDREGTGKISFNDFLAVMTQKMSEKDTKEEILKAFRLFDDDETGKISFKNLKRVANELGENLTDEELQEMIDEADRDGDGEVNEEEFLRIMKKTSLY
Description: The Sfi1 peptide was derived from 670-REVAA-RESQH-NRQLL-RGALR-RWK-692 of human Sfi1 and the fluorescein was attached to the native C-terminal Lys. Sfi1 peptide titration was performed in a buffer composed of 10 mM HEPES pH 7.4, 100 mM CaCl2, and 0.005% v/v Tween 20. For binding, to a 2-fold dilution series of centrin1, 100 nM of Sfi1 peptide was added, and the reaction mix was incubated for 45 min at RT before anisotropy measurements. For measuring the IC50 of inhibitors to centrin1, to the 3-fold dilution series of inhibitors in the assay buffer, a complex of 100 nM fluorescein labelled Sfi1 peptide and 250 nM His-centrin1 was added in 20 µL volume in a 384-well plate. The fluorescence anisotropy was measured after overnight incubation at RT.
The fluorescence anisotropy was measured on a Clariostar (BMG Labtech, Ortenberg, Germany) plate reader using the fluorescence intensity signal recorded from vertical (Iv)- and horizontal (Ih)-polarised light using a fluorescence polarisation module (λexcitation 482 ± 8 nm and λemission 530 ± 20 nm). Fluorescence anisotropy was calculated from the measured fluorescence intensities according to r=Iv−GλIh/Iv+2GλIh, where r is the fluorescence anisotropy value and Iv and Ih are the fluorescence emission intensities detected with vertical and horizontal polarisation, respectively. The instrument specific correction factor G(λ) was set to 1 and not determined further. A quadratic equation as described by others was defined in Prism (GraphPad, version 9.5.1, La Jolla, CA, USA) and was used to determine the KD value of the fluorescein tagged peptides to target protein. y=Af+Ab−Af∗(Lt+KD+x−Lt+KD+x^2−4∗Lt∗x/2Lt
The IC50 value of inhibitors was determined by plotting the log concentration of inhibitor against fluorescence anisotropy values and fitting the data to log inhibitor vs. response—variable slope (four parameters) equation in Prism (GraphPad).

CaM = conditions: F-PMCA peptide as probe; read-out: CaM Kd (References); cited from earlier work
K-RasG12V/centrin1 = target: T2, K-RasG12V/centrin1 (Homo sapiens, UniProt Q12798); assay: Cellular BRET Rluc8-K-RasG12V/GFP2-centrin1 in HEK293-ebna cells; type: cell-based; conditions: for effect on BRETtop of K-RasG12V/centrin1: ophiobolin A 2.5 µM, calmidazolium 10 µM, calmirasone1 20 µM, 24 h, n = 3
T2 construct: expressed in transfected cells; host or cells: HEK293-ebna
T2 sequence (Q12798 1-172): T1 sequence (Q12798 1-172)
Description: Briefly, ~200,000 HEK293-ebna cells were seeded per well of a 12-well plate (cat. no. 665180, Greiner Bio-One, Vivoorde, Belgium) and grown in 1 mL of complete DMEM. The next day, ~1 µg of BRET sensor plasmids was transfected using 2.5 µL of jetPRIME. The concentration of donor plasmid was 25 ng, and that of the acceptor plasmid had increased from 25 ng to 1000 ng for titration curves. Cells were treated with inhibitors or vehicle control (DMSO at 0.2% v/v) 24 h after transfection. Cells were collected the following day in PBS and plated in white, flat bottom 96-well plates (cat. no. 236108, Nunc, Thermo Fisher Scientific). BRET measurements were performed on a Clariostar plate reader (BMG Labtech). Three channels were read. The first channel was First, GFP2-fluorescence (λexcitation 405 ± 10 nm and λemission 515 ± 10 nm), which is directly proportional to the acceptor concentration (RFU). Second, the channel was read after adding coelenterazine 400a (cat. no. C-320, GoldBio, Saint Louis, MO, USA; at 10 μM final concentration) BRET-channel (515 ± 15 nm) readings in well-mode, and then again (third) with the luminescence channel (410 ± 40 nm), and recordings were made. Signals corresponded to the BRET signal and donor (RLU) signals. The ratio of BRET signal/RLU gave the raw BRET ratio. The final BRET ratio (BRET in plots) was obtained by subtracting the raw BRET ratio from the background raw BRET ratio of cells expressing only the donor. The relative expression is calculated as the ratio of RFU/RLU and denoted as [Acceptor]/[Donor]. […]
For dose response analysis of inhibitors, on day one, ~200,000 HEK293-ebna cells were seeded per well of a 12-well plate (cat. No. 665180, Greiner Bio-One, Vivoorde, Belgium) and grown in complete DMEM. […] The log inhibitor vs BRET ratio was plotted, and the data were fitted by a log (inhibitor) vs. response variable slope (four parameters) equation of Prism, and the IC50 values were calculated.

K-Ras/centrin1 = assay: Cellular BRET donor saturation titration Rluc8-K-Ras/GFP2-centrin1 in HEK293-ebna cells; type: cell-based, human; conditions: 10 µM mevastatin, 24 h
Description: (§1) The detailed method of our BRET assay can be found in [9, 43]. Briefly, ~200,000 HEK293-ebna cells were seeded per well of a 12-well plate (cat. no. 665180, Greiner Bio-One, Vivoorde, Belgium) and grown in 1 mL of complete DMEM. The next day, ~1 µg of BRET sensor plasmids was transfected using 2.5 µL of jetPRIME. The concentration of donor plasmid was 25 ng, and that of the acceptor plasmid had increased from 25 ng to 1000 ng for titration curves. Cells were treated with inhibitors or vehicle control (DMSO at 0.2% v/v) 24 h after transfection. Cells were collected the following day in PBS and plated in white, flat bottom 96-well plates (cat. no. 236108, Nunc, Thermo Fisher Scientific). BRET measurements were performed on a Clariostar plate reader (BMG Labtech). Three channels were read. The first channel was First, GFP2-fluorescence (λexcitation 405 ± 10 nm and λemission 515 ± 10 nm), which is directly proportional to the acceptor concentration (RFU). Second, the channel was read after adding coelenterazine 400a (cat. no. C-320, GoldBio, Saint Louis, MO, USA; at 10 μM final concentration) BRET-channel (515 ± 15 nm) readings in well-mode, and then again (third) with the luminescence channel (410 ± 40 nm), and recordings were made. Signals corresponded to the BRET signal and donor (RLU) signals. […] The relative expression is calculated as the ratio of RFU/RLU and denoted as [Acceptor]/[Donor]. […]

CTK/CaM = assay: Cellular BRET donor saturation titration Rluc8-CTK/GFP2-CaM in HEK293-ebna cells; type: cell-based, human; conditions: 10 µM mevastatin, 24 h
Description: as §1

K-Ras/CaM = assay: Cellular BRET donor saturation titration Rluc8-K-Ras/GFP2-CaM in HEK293-ebna cells; type: cell-based, human; conditions: 10 µM mevastatin, 24 h
Description: as §1

CTK/centrin1 = assay: Cellular BRET donor saturation titration Rluc8-CTK/GFP2-centrin1 in HEK293-ebna cells; type: cell-based, human; conditions: 10 µM mevastatin, 24 h
Description: as §1

[1] = 100 nM F-Sfi1 and 250 nM His-centrin1, overnight at RT, Kd converted from IC50, read-out: Centrin1 Mean Kd (Repeat Values)

## Clc1ccc(C(c2ccc(Cl)cc2)n2cc[n+](CC(OCc3ccc(Cl)cc3Cl)c3ccc(Cl)cc3Cl)c2)cc1 (centres unmarked) [calmidazolium, calmidazolium chloride]
centrin1; [1]
  Kd: 1.6 µM
CaM
  Kd: 0.0135 µM
K-RasG12V/centrin1; HEK293-ebna, donor/acceptor plasmid ratio 1/19, 24 h treatment, n = 2, read-out: IC50, inhibition of K-RasG12V/centrin1 BRET interaction
  IC50: 10.44 ± 0.05 µM
K-RasG12V/centrin1
  effect on BRETtop of K-RasG12V/centrin1: lowered

## CC[C@H](C)C(=O)O[C@H]1CCC=C2C=C[C@H](C)[C@H](CC[C@@H]3C[C@@H](O)CC(=O)O3)[C@H]21 [mevastatin]
K-Ras/centrin1
  effect on BRET-levels of K-Ras with centrin1: did not significantly affect
K-Ras/centrin1; n = 3
  BRETtop (K-Ras + centrin1): 0.078 ± 0.005
CTK/CaM
  effect on BRET of CTK with CaM: did not decrease
CTK/CaM; n = 3
  BRETtop (CTK + CaM): 0.063 ± 0.004
K-Ras/CaM
  effect on BRET-levels of K-Ras with CaM: did not significantly affect
K-Ras/CaM; n = 3
  BRETtop (K-Ras + CaM): 0.097 ± 0.005
CTK/centrin1
  effect on BRET of CTK with centrin1: did not decrease
CTK/centrin1; n = 3
  BRETtop (CTK + centrin1): 0.061 ± 0.003

## NCCCCCCNS(=O)(=O)c1cccc2c(Cl)cccc12 [W-7]
centrin1; [1]
  Kd: 18.2 µM
CaM
  Kd: 1.47 µM

## CC(C)=C[C@H]1C[C@H](C)[C@]2(CC[C@]3(C)C[C@H]4[C@H](C(=O)C[C@@]4(C)O)/C(C=O)=C\C[C@H]32)O1 [ophiobolin A]
centrin1
  Kd: 49 µM
CaM
  Kd: 3.5 µM
K-RasG12V/centrin1
  effect on BRETtop of K-RasG12V/centrin1: lowered
